Measurements as given in patent US12624012B2, “14-chloro-β-elemene nitric oxide donor derivative and preparation method and use thereof” (HANGZHOU NORMAL UNIVERSITY, priority 2021, dated 2026).

Legend:
[1] = In vitro NO release test (incubation with L-cysteine, OD at 550 nm); conditions: 100 μM solution with cysteine solution, 37° C.
Protocol: • (1) Sodium nitrite solutions with different concentrations were prepared. A calibration curve was drawn. • (2) The sample was treated. A 100 μM solution was prepared. 2.5 mL of the prepared compound solution and 2.5 mL of the cysteine solution were taken and incubated at 37° C. for 120 min, and the resulting mixture was sampled at different time points. • (3) A blank hole and a standard hole were set. 160 μL of the sample was collected and mixed evenly with 0.08 mL of a developer and stood at 37° C. for 15 min. At λ=550 nm, the OD value of absorbance was measured by the enzyme marker. The NO release levels were obtained by substituting the value into the standard curve.

U87MG = test: In vitro anti-tumor activity evaluation test (CCK-8), U87MG; type: cell-based, human; conditions: Homo sapiens, U-87 MG, U87MG, 72 h; for inhibition at 1 µM: read-out: Inhibitory rates against tumor cell lines; for IC50: read-out: IC50 against different tumor cell lines
Protocol: (§1) • (1) Cells were digested and counted. Cell suspensions (H520, SW620 5.0×10^4 cells/mL, and U87MG 3.5×10^4 cells/mL) were prepared. 100 μL of cell suspension was added to each well of a 96-well cell culture plate. • (2) The 96-well cell culture plate was incubated in a 37° C., 5%, CO2 incubator for 24 h. • (3) A drug was diluted with a culture medium to a desired working solution concentration. 100 μL of the corresponding drug-containing culture medium was added to each well. At the same time, a negative control group and a positive control group were set up. • (4) The 96-well cell culture plate was incubated in a 37° C., 5%, CO2 incubator for 72 h. • (5) The 96-well plate was stained with CCK-8, and at λ=450 nm, the OD value was determined. • 1) 10 μL of CCK-8 was added to each well. The culture plate continued to be incubated in the incubator for 2-3 h. • 2) The culture plate was rocked for 10 min to gently mix and remove air bubbles from the 96-well plate. • 3) At λ=450 nm, the OD value of each well was read by the enzyme marker, and the inhibitory rates were calculated. • (6) According to the following equation (1), the growth inhibitory rate of the tumor cells was obtained. The obtained results were substituted into an IC 50 calculation software SPSS17.0 to find out the IC50 value.

NCI-H520 = test: In vitro anti-tumor activity evaluation test (CCK-8), NCI-H520; type: cell-based, human; conditions: Homo sapiens, NCI-H520, 72 h; for inhibition at 1 µM: read-out: Inhibitory rates against tumor cell lines; for IC50: read-out: IC50 against different tumor cell lines
Protocol: as §1

SW620 = test: In vitro anti-tumor activity evaluation test (CCK-8), SW620; type: cell-based, human; conditions: Homo sapiens, SW-620, SW620, 72 h; for inhibition at 1 µM: read-out: Inhibitory rates against tumor cell lines; for IC50: read-out: IC50 against different tumor cell lines
Protocol: as §1

SMILES	IC50 (NCI-H520) [nM]	IC50 (U87MG) [nM]	IC50 (SW620) [nM]	NO-release concentrations ([1]; 5 min) [µM]	NO-release concentrations ([1]; 10 min) [µM]	NO-release concentrations ([1]; 20 min) [µM]	NO-release concentrations ([1]; 30 min) [µM]	NO-release concentrations ([1]; 60 min) [µM]	NO-release concentrations ([1]; 90 min) [µM]	NO-release concentrations ([1]; 120 min) [µM]	inhibition at 1 µM (U87MG) [%]	inhibition at 1 µM (NCI-H520) [%]	inhibition at 1 µM (SW620) [%]
C=C[C@]1(C)CC[C@@H](C(=C)CN2CC[C@H](OC(=O)CCC(=O)OCC#CCOc3no[n+]([O-])c3S(=O)(=O)c3ccccc3)C2)C[C@H]1C(=C)CCl [Example 11, 4-((4-((4-(((S)-1-(2-((1R,3R,4S)-3-(3-chloroprop-1-en-2-yl)-4-methyl-4-vinylcyclohexyl)allyl)pyrrolidine-3-ly)oxy)-4-oxobutanoyl)oxy)but-2-yn-1-yl)oxy)-3-(phenylsulfonyl)-1,2,5-oxadiazole 2-oxide]	1020 ± 41	–	–	9.49	10.79	14.43	15.99	24.58	37.37	50.99	42 ± 6.5	46 ± 1	30.5 ± 3.3
C=C[C@]1(C)CC[C@@H](C(=C)CN2CCC(OC(=O)CCCC(=O)OCC#CCOc3no[n+]([O-])c3S(=O)(=O)c3ccccc3)C2)C[C@H]1C(=C)CCl (stereo partly drawn) [Example 12, 4-((4-((5-(((S)-1-(2-((1R,3R,4S)-3-(3-chloroprop-1-en-2-yl)-4-methyl-4-vinylcyclohexyl)allyl)pyrrolidine-3-ly)oxy)-5-oxopentanoyl)oxy)but-2-yn-1-yl)oxy)-3-(phenylsulfonyl)-1,2,5-oxadiazole 2-oxide]	–	898 ± 54	–	13.20	16.04	21.29	26.90	46.58	74.45	103.92	47.8 ± 1.1	39.1 ± 0.7	31.7 ± 1.4
C=C[C@]1(C)CC[C@@H](C(=C)CN2CCC(COC(=O)CCCC(=O)OCCOc3no[n+]([O-])c3S(=O)(=O)c3ccccc3)CC2)C[C@H]1C(=C)CCl [Example 14, 4-(2-((5-((1-(2-((1R,3R,4S)-3-(3-chloroprop-1-en-2-yl)-4-methyl-4-vinylcyclohexyl)allyl)piperidin-4-yl)methoxyl)-5-oxopentanoyl)oxy)ethyoxyl)-3-(phenylsulfonyl)-1,2,5-oxadiazole 2-oxide]	846 ± 27	477 ± 11	814 ± 68	12.34	13.53	15.94	18.96	29.94	45.42	62.49	54.8 ± 1.9	50.1 ± 1.1	55.4 ± 1.5
C=C[C@]1(C)CC[C@@H](C(=C)CN2CCC(COC(=O)CCC(=O)OCC#CCOc3no[n+]([O-])c3S(=O)(=O)c3ccccc3)CC2)C[C@H]1C(=C)CCl [Example 15, 4-((4-((4-((1-(2-((1R,3R,4S)-3-(3-chloroprop-1-en-2-yl)-4-methyl-4-vinylcyclohexyl)allyl)piperidin-4-yl)methoxyl)-4-oxobutanoyl)oxy)but-2-yn-1-yl)oxy)-3-(phenylsulfonyl)-1,2,5-oxadiazole 2-oxide]	1040 ± 33	–	–	8.67	10.07	12.979	15.92	25.47	36.31	48.15	40.5 ± 3.3	45.9 ± 1.4	31.3 ± 0.3

Now from value to compound, other results behind:

IC50 (NCI-H520) [nM]	IC50 (U87MG) [nM]	IC50 (SW620) [nM]	SMILES	NO-release concentrations ([1]; 5 min) [µM]	NO-release concentrations ([1]; 10 min) [µM]	NO-release concentrations ([1]; 20 min) [µM]	NO-release concentrations ([1]; 30 min) [µM]	NO-release concentrations ([1]; 60 min) [µM]	NO-release concentrations ([1]; 90 min) [µM]	NO-release concentrations ([1]; 120 min) [µM]	inhibition at 1 µM (U87MG) [%]	inhibition at 1 µM (NCI-H520) [%]	inhibition at 1 µM (SW620) [%]
1050 ± 13	2160 ± 548	–	C=C[C@]1(C)CC[C@@H](C(=C)CN2CCC(COC(=O)CCCC(=O)OCC#CCOc3no[n+]([O-])c3S(=O)(=O)c3ccccc3)CC2)C[C@H]1C(=C)CCl [Example 16, 4-((4-((5-((1-(2-((1R,3R,4S)-3-(3-chloroprop-1-en-2-yl)-4-methyl-4-vinylcyclohexyl)allyl)piperidin-4-yl)methoxyl)-5-oxopentanoyl)oxy)but-2-yn-1-yl)oxy)-3-(phenylsulfonyl)-1,2,5-oxadiazole 2-oxide]	16.99	18.93	22.62	27.04	42.47	64.24	86.29	52.2 ± 3.4	52.3 ± 1.1	39.8 ± 1.9
–	811 ± 16	1090 ± 40	C=C[C@]1(C)CC[C@@H](C(=C)CN2CCCC(COC(=O)CCC(=O)OCCOc3no[n+]([O-])c3S(=O)(=O)c3ccccc3)C2)C[C@H]1C(=C)CCl (stereo partly drawn) [Example 17, 4-(2-((4-((1-(2-((1R,3R,4S)-3-(3-chloroprop-1-en-2-yl)-4-methyl-4-vinylcyclohexyl)allyl)piperidin-3-yl)methoxyl)-4-oxobutanoyl)oxy)ethyoxyl)-3-(phenylsulfonyl)-1,2,5-oxadiazole 2-oxide]	4.84	5.66	6.95	8.44	12.43	17.81	22.91	51 ± 2.2	45.4 ± 1.9	38.3 ± 3
1210 ± 152	–	–	C=C[C@]1(C)CC[C@@H](C(=C)CN2CCCC(COC(=O)CCCC(=O)OCCOc3no[n+]([O-])c3S(=O)(=O)c3ccccc3)C2)C[C@H]1C(=C)CCl (stereo partly drawn) [Example 18, 4-(2-((5-((1-(2-((1R,3R,4S)-3-(3-chloroprop-1-en-2-yl)-4-methyl-4-vinylcyclohexyl)allyl)piperidin-3-yl)methoxyl)-5-oxopentanoyl)oxy)ethyoxyl)-3-(phenylsulfonyl)-1,2,5-oxadiazole 2-oxide]	8.89	10.18	12.42	14.32	21.50	32.40	42.83	48.3 ± 1.5	43.9 ± 1	46.1 ± 0.9
–	985 ± 12	–	C=C[C@]1(C)CC[C@@H](C(=C)CN2CCCC(COC(=O)CCC(=O)OCC#CCOc3no[n+]([O-])c3S(=O)(=O)c3ccccc3)C2)C[C@H]1C(=C)CCl (stereo partly drawn) [Example 19, 4-((4-((4-((1-(2-((1R,3R,4S)-3-(3-chloroprop-1-en-2-yl)-4-methyl-4-vinylcyclohexyl)allyl)piperidin-3-yl)methoxyl)-4-oxobutanoyl)oxy)but-2-yn-1-yl)oxy)-3-(phenylsulfonyl)-1,2,5-oxadiazole 2-oxide]	13.76	15.87	19.21	22.88	34.60	48.73	56.52	41.9 ± 1.1	46.1 ± 2.7	40.6 ± 2.8
